The record followed here is ChEMBL document CHEMBL5625232, “Development of selective class I protein arginine methyltransferase inhibitors through fragment-based drug design approach” (Eur J Med Chem, 2023).

The target in series [1] is T1, Protein arginine N-methyltransferase 6 (Homo sapiens, UniProt Q96LA8). Briefly: Displacement of 3H-SAM from human PRMT6 in presence of substrate by SPA assay.
Target sequence in this assay (Q96LA8 whole entry): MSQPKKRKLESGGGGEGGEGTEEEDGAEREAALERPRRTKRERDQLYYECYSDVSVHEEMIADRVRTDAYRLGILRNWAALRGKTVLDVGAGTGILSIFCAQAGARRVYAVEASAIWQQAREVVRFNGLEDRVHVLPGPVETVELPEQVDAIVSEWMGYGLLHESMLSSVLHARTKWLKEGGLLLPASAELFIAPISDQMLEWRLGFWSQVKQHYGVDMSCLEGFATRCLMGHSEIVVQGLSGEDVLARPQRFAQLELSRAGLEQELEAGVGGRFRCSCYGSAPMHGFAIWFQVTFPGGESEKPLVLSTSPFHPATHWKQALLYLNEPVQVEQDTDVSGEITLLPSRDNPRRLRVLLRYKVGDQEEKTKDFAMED
Series [2] addresses T2, Protein arginine N-methyltransferase 8 (Homo sapiens, UniProt Q9NR22). Put plainly: Displacement of 3H-SAM from human PRMT8 at 10 uM in presence of substrate by SPA assay.
Target sequence in this assay (Q9NR22 2-394 limits assumed): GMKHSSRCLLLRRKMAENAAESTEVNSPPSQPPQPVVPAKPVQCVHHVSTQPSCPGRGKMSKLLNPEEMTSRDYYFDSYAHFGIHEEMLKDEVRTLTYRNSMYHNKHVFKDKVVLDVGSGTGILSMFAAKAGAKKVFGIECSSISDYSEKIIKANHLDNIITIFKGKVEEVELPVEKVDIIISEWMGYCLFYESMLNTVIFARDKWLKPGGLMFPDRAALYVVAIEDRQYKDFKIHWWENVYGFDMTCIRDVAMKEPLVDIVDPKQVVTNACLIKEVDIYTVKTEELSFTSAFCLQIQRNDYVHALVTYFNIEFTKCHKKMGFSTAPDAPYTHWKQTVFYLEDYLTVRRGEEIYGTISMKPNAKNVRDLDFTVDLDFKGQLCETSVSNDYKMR
Series [3] deals with T3, Protein arginine N-methyltransferase 7 (Homo sapiens) (UniProt Q9NVM4).
T3 sequence (whole entry): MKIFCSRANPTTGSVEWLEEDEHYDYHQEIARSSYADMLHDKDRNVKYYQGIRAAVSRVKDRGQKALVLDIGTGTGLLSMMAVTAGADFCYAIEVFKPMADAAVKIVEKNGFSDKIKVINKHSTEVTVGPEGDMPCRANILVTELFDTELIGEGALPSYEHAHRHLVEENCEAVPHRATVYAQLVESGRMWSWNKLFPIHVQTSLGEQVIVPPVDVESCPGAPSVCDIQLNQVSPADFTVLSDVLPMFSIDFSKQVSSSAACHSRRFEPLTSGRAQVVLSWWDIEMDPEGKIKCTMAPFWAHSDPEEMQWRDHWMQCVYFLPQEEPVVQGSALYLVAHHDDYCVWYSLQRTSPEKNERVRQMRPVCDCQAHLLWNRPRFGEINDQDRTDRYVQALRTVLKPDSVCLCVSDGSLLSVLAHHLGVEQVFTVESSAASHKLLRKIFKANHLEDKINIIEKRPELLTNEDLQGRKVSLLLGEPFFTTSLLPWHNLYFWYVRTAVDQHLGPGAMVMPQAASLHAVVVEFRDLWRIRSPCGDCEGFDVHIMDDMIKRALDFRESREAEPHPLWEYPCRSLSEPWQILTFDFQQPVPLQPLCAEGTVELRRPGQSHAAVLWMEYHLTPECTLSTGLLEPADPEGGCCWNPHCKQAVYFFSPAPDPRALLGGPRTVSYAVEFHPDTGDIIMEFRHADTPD
Briefly: Displacement of 3H-SAM from human PRMT7 at 10 uM in presence of substrate by SPA assay.

The target of series [4] is T4, Histone-arginine methyltransferase CARM1 (Homo sapiens, UniProt Q86X55).
T4 sequence (Q86X55 whole entry): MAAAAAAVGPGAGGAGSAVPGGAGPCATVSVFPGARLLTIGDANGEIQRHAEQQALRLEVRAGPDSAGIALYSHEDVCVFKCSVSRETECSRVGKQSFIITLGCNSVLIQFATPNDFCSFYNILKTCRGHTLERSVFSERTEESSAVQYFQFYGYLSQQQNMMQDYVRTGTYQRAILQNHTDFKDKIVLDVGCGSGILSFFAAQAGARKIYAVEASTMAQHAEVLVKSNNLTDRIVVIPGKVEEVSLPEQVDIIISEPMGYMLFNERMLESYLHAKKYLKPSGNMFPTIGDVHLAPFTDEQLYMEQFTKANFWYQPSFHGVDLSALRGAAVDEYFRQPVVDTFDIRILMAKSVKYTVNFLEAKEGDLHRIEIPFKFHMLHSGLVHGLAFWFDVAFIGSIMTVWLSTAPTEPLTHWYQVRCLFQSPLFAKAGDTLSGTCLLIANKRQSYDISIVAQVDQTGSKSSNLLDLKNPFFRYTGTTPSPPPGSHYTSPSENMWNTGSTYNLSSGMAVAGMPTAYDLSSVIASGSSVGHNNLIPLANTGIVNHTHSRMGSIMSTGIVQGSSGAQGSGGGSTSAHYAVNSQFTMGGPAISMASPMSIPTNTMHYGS
Briefly: Displacement of 3H-SAM from human PRMT4 in presence of substrate by SPA assay.

For series [5], the target named is T5, Protein arginine N-methyltransferase 3 (Homo sapiens, UniProt O60678). Briefly: Displacement of 3H-SAM from human PRMT3 in presence of substrate by SPA assay.
Target sequence in this assay (O60678 whole entry): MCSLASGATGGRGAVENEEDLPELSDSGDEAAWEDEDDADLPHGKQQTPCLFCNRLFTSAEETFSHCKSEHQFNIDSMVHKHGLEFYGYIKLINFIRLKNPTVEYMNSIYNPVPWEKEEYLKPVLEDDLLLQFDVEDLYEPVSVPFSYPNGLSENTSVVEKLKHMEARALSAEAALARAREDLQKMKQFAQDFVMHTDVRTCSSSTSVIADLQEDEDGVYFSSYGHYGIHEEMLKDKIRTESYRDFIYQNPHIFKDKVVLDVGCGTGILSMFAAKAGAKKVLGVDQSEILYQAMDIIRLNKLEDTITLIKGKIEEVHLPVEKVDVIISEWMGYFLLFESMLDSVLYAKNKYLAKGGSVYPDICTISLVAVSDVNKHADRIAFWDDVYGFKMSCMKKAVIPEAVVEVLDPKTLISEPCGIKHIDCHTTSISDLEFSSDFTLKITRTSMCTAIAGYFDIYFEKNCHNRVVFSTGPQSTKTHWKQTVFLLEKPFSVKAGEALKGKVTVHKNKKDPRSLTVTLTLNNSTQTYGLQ
Series [6] concerns the target T1, Protein arginine N-methyltransferase 6. Briefly: Displacement of 3H-SAM from human PRMT6 at 10 uM in presence of substrate by SPA assay.
Target sequence in this assay (Q96LA8 whole entry, looked up): as the sequence (Q96LA8 whole entry) above
Series [7] has as its target Protein arginine N-methyltransferase 5 (Homo sapiens) (UniProt O14744). Put plainly: Displacement of 3H-SAM from human PRMT5 at 10 uM in presence of substrate by SPA assay.
The target of series [8] is T6, Protein arginine N-methyltransferase 9 (Homo sapiens) (UniProt Q6P2P2).
T6 sequence (whole entry): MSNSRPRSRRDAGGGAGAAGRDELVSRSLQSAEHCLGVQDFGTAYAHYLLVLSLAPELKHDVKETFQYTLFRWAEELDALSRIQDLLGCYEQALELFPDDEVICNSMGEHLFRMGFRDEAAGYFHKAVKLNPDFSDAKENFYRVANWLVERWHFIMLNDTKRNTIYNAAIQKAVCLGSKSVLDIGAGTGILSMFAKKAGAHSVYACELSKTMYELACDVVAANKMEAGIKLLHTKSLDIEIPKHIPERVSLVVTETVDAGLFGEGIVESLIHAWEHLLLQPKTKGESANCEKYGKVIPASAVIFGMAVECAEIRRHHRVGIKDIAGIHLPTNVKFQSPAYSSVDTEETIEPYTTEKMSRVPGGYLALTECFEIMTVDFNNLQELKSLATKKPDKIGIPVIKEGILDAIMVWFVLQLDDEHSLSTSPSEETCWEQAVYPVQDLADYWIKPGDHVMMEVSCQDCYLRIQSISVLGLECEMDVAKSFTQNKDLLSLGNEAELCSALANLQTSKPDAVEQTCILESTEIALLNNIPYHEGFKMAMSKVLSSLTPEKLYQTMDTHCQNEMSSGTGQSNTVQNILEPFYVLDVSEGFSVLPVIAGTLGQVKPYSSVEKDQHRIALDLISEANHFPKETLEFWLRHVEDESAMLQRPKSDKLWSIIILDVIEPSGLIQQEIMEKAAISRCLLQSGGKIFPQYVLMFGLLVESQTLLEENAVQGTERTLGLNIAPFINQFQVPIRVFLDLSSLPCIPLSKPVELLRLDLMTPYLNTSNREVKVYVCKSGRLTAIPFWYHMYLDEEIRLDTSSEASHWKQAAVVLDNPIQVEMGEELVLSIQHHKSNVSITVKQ
Put plainly: Displacement of 3H-SAM from human PRMT9 at 10 uM in presence of substrate by SPA assay.

Series [9] concerns the target T7, Histone-arginine methyltransferase CARM1 (Homo sapiens) (UniProt Q86X55).
T7 sequence (whole entry): T4 sequence (Q86X55 whole entry)
Put plainly: Displacement of 3H-SAM from human PRMT4 at 10 uM in presence of substrate by SPA assay.

For series [10], the target named is T5, Protein arginine N-methyltransferase 3. Briefly: Displacement of 3H-SAM from human PRMT3 at 10 uM in presence of substrate by SPA assay.
Target sequence in this assay (O60678 2-531 limits assumed): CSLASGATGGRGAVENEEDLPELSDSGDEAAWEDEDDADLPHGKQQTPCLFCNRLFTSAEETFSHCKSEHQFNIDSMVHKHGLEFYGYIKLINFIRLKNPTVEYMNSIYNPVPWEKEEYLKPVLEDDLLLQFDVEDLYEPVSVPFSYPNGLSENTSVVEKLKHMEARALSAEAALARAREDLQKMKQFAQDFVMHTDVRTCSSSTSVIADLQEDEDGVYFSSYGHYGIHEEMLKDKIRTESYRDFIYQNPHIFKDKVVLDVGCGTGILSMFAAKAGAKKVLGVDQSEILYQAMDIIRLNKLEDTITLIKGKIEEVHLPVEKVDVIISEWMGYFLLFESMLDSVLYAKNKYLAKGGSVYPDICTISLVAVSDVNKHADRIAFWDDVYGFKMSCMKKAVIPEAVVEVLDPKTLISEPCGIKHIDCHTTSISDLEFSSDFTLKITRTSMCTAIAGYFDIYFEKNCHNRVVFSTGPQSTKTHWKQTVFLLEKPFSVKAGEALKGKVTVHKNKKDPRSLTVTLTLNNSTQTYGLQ
The target of series [11] is T2, Protein arginine N-methyltransferase 8. Put plainly: Displacement of 3H-SAM from human PRMT8 in presence of substrate by SPA assay.
Target sequence in this assay (Q9NR22 whole entry): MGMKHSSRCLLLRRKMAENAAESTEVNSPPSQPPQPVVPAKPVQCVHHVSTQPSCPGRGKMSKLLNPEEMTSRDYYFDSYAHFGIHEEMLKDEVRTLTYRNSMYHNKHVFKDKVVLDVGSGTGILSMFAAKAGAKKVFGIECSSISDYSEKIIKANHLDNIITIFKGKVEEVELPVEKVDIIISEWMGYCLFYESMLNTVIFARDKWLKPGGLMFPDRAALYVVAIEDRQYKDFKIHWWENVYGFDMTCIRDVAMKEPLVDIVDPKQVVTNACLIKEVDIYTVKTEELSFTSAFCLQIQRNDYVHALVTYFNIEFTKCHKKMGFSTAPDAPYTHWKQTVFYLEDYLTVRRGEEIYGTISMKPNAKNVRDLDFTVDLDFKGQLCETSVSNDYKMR
Series [12] in a line: Metabolic stability in human liver microsomes assessed as half life preincubated for 10 mins followed by NADPH addition measured for 60 mins by LC-MS/MS analysis. It counts as ADME, Microsome. The conditions noted are these: time 70 min.

Calls of active or inactive are those of the source. The calls are words filed in the database; no cut-off is given here.

Chain of Protein arginine N-methyltransferase 5 (Homo sapiens) (O14744 whole entry): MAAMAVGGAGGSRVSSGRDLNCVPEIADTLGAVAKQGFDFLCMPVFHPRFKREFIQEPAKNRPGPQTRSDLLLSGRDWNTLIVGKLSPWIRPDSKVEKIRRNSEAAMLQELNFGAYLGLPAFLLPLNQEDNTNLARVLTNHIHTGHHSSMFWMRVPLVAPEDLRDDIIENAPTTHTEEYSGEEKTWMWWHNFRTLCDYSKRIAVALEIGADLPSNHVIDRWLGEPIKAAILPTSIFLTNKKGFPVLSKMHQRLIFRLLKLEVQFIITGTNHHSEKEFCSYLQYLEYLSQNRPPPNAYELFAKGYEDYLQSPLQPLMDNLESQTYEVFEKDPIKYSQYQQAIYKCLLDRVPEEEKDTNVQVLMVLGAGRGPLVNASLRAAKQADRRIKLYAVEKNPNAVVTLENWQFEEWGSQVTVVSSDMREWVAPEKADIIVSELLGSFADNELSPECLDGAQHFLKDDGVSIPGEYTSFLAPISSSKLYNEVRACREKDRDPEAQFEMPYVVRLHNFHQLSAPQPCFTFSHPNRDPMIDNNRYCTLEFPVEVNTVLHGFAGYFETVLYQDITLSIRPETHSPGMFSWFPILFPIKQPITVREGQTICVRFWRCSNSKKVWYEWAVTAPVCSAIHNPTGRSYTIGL

Take `CNCCN1CC[C@H](NC(=O)c2ccc3c(Nc4ccc(CN)cc4)ncnc3c2)C1`: the IC50 in series [1] was 436 µM; in series [4], 92 µM; in [5], 1.39 mM; in [11], 823 µM. Also, the inhibition result in [2], in series [3], in [6], in series [7], in series [8] and in [9] was “Active” each time. In [10], the inhibition result is “Active”.
As for `CNCCN1CCC(NC(=O)c2ccc3c(Nc4ccc(CN)cc4)ncnc3c2)C1` (racemic), the IC50 in series [1] came to 703 µM; in [4] it was 80 µM; in series [5], 3.12 mM; in series [11] it was 2430 µM. The half-life in [12] was 10.9 min. Also, the inhibition entry in series [2], in [3], in [6], in [7], in [8] and in [9] was “Active” in each case. Also, the inhibition entry in series [10] was “Active”.
On to `CNCCN1CC[C@@H](NC(=O)c2ccc3c(Nc4ccc(CN)cc4)ncnc3c2)C1`, for which the IC50 in series [1] turned out to be 253 µM; in series [4], 37 µM; in [5] it was 3.57 mM; in series [11], 794 µM. Moreover, the half-life in series [12] was 23 min. Further, the inhibition entry in series [2], in series [3], in series [6], in series [7], in series [8] and in series [9] was “Active” throughout. For the same compound, in [10], the inhibition entry is “Active”.
